The values that follow come from article PMC11561238, “Discovery and binding mode of small molecule inhibitors of the apo form of human TDO2” (Scientific Reports, 2024).

One assay addresses T1, apo-TDO2 (Homo sapiens, UniProt P48775).
T1 construct: a longer construct (His6-aa19-406, with aa406 corresponding to the wild type C-terminal residue), which was used for DSF and other experiments; made in house; host or cells: E. coli RP523 (hemB mutant, unable to synthesize heme)
The assay can be described thus: Differential scanning fluorimetry (thermal shift) of apo-TDO2. The class given is binding. The following applies: for Δ Tm Boltzmann / Δ Tm Derivative: 25 µM; for Δ Tm Boltzmann / Δ Tm Derivative / Tm Boltzmann / Tm Derivative: in °C. The procedure:
[…] S5 online).
Protein thermal stability and small molecule ligand binding of TDO2 in vitro was studied using differential scanning fluorimetry (DSF, also known as thermal shift assay)[34]. Assay ingredients and ligands were combined to obtain a mixture composed of 10 µM TDO2 and 10x SYPRO Orange, in assay buffer (50 mM HEPES-NaOH pH 8.0, 200 mM NaCl, 2 mM TCEP, 10% glycerol) and 2% final DMSO concentration. Small molecule chemical ligands were taken from DMSO stock solution (100 mM, 10 mM) and diluted in DMSO transferred to wells of PCR Plates (Micro Amp Fast 96-well Reaction Plates, Applied Biosystems) to ensure matching final DMSO concentrations.
DSF was carried out with a StepOnePlus™ real time PCR system. Thermal denaturation of TDO2 was monitored with a ramp rate of 1 K/min. Protein melting curves were evaluated using the Thermal Shift Software v 1.3. (Thermo Fisher Scientific) to derive differences in midpoint melting-temperatures (derivative model). The thermal shift (DTm) is documented as the difference between the reference midpoint melting temperature of proteins (containing 500 µM AMT) in the presence of the ligand vehicle (DMSO) and in the presence of ligand.
Supplementary Table S2. Differential scanning fluorimetry data corresponding to supplementary figure S4. The experiments were carried out in quadruplicate, or in triplicate where single outlier values (highlighted in bold italics) were excluded from calculation of the melting curves. AMT was added at a concentration of 500 µM; […] and […] were added at a concentration of 25 µM.

For the next assay, the target named is T2, IDO1 (Homo sapiens, UniProt P14902).
T2 construct: SKOV3 cells treated with IFNγ to induce IDO expression; endogenous in cells; host or cells: SKOV3 cells (NCI No. 0503405), IFNγ-stimulated
T2 sequence (P14902 whole entry): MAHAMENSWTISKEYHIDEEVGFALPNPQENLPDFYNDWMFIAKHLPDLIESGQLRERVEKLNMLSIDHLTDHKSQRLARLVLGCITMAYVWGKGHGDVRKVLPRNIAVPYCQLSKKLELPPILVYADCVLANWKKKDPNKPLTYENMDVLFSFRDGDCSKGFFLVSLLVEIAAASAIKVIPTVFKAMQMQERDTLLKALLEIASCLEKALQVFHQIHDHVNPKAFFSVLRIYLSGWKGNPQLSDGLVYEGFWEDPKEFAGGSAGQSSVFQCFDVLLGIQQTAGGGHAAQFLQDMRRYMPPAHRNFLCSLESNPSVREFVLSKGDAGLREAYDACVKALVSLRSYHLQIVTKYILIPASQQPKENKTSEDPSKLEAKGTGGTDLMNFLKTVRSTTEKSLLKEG
Nature of the assay: IDO1 cellular activity assay (IFNγ-stimulated SKOV3 cells). The format is cell-based. The following applies: IFNγ 50 ng/ml, 24 h. The procedure: A cellular assay similar to the TDO2 assay was used to measure IDO1 inhibition in SKOV3 cells.
SKOV3 cells (source: National Cancer Institute (NCI), No. 0503405) which upregulate IDO1 after stimulation with IFNγ were used to measure compounds for IDO1 inhibitory activity. SKOV3 cells were routinely maintained in RPMI 90% (v/v), FCS 10% (v/v), Penicilin/streptomycin 1% (v/v). SKOV3 cells were seeded in 384 well plates at a density of 8000 cells in 45 µl per well or 4000 cells in 45 µl per well, respectively. Plates were incubated at 37 °C / 5% CO2 for 24 h. On the next day, 10 µl compound in serial dilutions (tested concentration range 10 µM-0.5 nM) and 200 µM L-tryptophan were added as well as IFNγ at a final concentration of 50 ng/ml. After 24 h of incubation at 37 °C / 5% CO2, 3 µl of the supernatant per well was transferred to 25 µl H2O per well in a 384 deep well plate and 25 µl of the supernatant per well was transferred to waste. The SKOV3 cell plates with 25 µl supernatant per well remaining were used to measure viability (see below). […] NFK and kynurenine (KYN) were quantified by LCMS, normalized to the internal standard L-tryptophan-(indole-d5) and the sum was calculated. […] For each compound concentration the percentage of activity compared to 0% and 100% effect was calculated as average ± STDEV (each concentration measured in duplicate). […]

The target in the next assay is T3, holo-TDO2 (Homo sapiens, UniProt P48775).
T3 construct: a construct encoding amino acids 19–406 of human TDO2 with an N-terminal six histidine tag; His6 (N); PreScission protease cleavage site (linker) (N); made in house; host or cells: E. coli BL21(DE3)
T3 sequence (P48775 19-406): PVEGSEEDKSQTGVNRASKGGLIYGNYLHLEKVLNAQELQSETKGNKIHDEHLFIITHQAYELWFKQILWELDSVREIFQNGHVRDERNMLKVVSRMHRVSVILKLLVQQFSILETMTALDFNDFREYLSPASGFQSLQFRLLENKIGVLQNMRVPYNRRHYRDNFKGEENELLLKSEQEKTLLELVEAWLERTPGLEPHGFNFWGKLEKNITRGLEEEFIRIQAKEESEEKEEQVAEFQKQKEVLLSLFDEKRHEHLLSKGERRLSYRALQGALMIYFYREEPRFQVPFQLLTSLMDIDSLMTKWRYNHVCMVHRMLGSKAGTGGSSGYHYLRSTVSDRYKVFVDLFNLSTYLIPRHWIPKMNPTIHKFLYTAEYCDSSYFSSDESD
The assay can be described thus: Heme competition by holo-TDO2 UV-VIS absorbance (Soret band). The format is binding. Conditions: 5 µM holo-TDO2, 20 µM inhibitor, 37 °C, up to 6 h. The procedure: To explore whether the identified apo-binders could compete with heme-binding to TDO2, a UV-visible absorption spectrum of holo-TDO2 was measured in the absence or presence of compounds. […] A shifted Soret peak can indicate a heme protein-ligand interaction, and a reduced intensity indicates loss of protein bound heme (although free heme also absorbs with a peak at approximately 400 nm, it is very poorly soluble).
Fig. 2 The UV-VIS absorption spectrum of holo-TDO2 in the presence of Cpd-1 (A) or Cpd-2 (B) or the vehicle control. […] The increase of absorbance at 280 nm of holo-TDO2 in the presence of Cpd-1 or Cpd-2 compared to the vehicle control is likely due to compound absorbance at this wavelength.
A UV − visible spectra study was performed to evaluate the binding of the compounds. The holo-TDO2 absorbance spectra were measured using a BioTek Synergy multimode reader (Agilent) for wavelengths from 250 to 600 nm in 1 nm increments. 5 µM holo-TDO2 was incubated at 37 °C with 20 µM compounds or DMSO in phosphate buffer supplemented with 0.01% Tween-20 in a 96 well UV compatible plate (Corning #3679) and absorbance was measured before (t = 0 h) and after 2–6 h of incubation.

Setting [1] is: 25 µM compound with 500 µM AMT, compared to 59.2 °C in the absence of inhibitor, read-out: increase of the melting temperature of apo-TDO2.
Where [2] appears, read: apo-TDO2 + 25 µM compound, no AMT, shift vs apo, single replicates.
[3] abbreviates: apo-TDO2 + 25 µM compound, no AMT, shift vs apo, single replicates, read-out: Δ Tm Boltzmann.
Setting [4] is: apo-TDO2 + 25 µM compound, no AMT, shift vs apo, single replicates, read-out: Δ Tm Derivative.
The mark [5] stands for this setting: apo-TDO2 + 25 µM compound, no AMT, single replicates.

Several values for one entry are separate records, joined by “and”; a condition that tells them apart may be missing. Equal entries are not always repeated. Entries after “also recorded” stand apart in the source; their conditions may differ. Where two headings read alike, the source gives them in different places.

T1 sequence (P48775 19-406): as above

As a reminder, the IC50 is the point on the concentration scale where inhibition reaches its midpoint. Low values mean greater potency in that assay, high ones weaker potency in that assay. Turning to `CCOC(=O)c1c(OC)nc2n(c1=O)CCCC2N(C(=O)Nc1ccccc1C(C)C)[C@@H](C)c1ccccc1` (mixture of isomers) [Cpd-2, ethyl 9-(3-(2-isopropylphenyl)-1-((S)-1-phenylethyl)ureido)-2-methoxy-4-oxo-6,7,8,9-tetrahydro-4H-pyrido[1,2-a]pyrimidine-3-carboxylate], the ΔTm at 25 µM on apo-TDO2 (setting [1]) came out at 14.5 °C. For the same molecule, on apo-TDO2 (setting [2]), the “Δ Tm Boltzmann” value was 21.65 and 21.58 and 21.17; the “Δ Tm Derivative” value is 21.51 and 21.53 and 21.2. In addition, at apo-TDO2 (setting [3]), the ΔTm at 25 µM amounted to 21.4 °C. The ΔTm at 25 µM at apo-TDO2 (setting [4]) turned out to be 21.5 °C. At apo-TDO2 (setting [5]), the “Tm Boltzmann” value worked out at 70.45; the “Tm Derivative” value was 70.37 and 70.39 and 70.41 and 70.08. The molecule also registered an IC50 against IDO1 of more than 10 µM. Besides, the “Soret band (405 nm) intensity of holo-TDO2 absorption spectrum” value on holo-TDO2 is on record as “clear time-dependent reduction in the Soret band intensity; also recorded: reduction of the absorbance peak at 405 nm”.
Turning to `CCCc1ccccc1NC(=O)N(C(C)c1ccccc1)C1CCCn2c1nc(OC)c(C(=O)OCC)c2=O` (stereo not drawn) [Cpd-1, ethyl 9-(3-(2-propylphenyl)-1-(1-phenylethyl)ureido)-2-methoxy-4-oxo-6,7,8,9-tetrahydro-4H-pyrido[1,2-a]pyrimidine-3-carboxylate], the ΔTm at 25 µM on apo-TDO2 (setting [1]) worked out at 11.2 °C. Moreover, at apo-TDO2 (setting [2]), the “Δ Tm Boltzmann” value was 11.41 and 11.37 and 11.43; the “Δ Tm Derivative” value was 7.28 and 6.95 and 6.97. Moreover, at apo-TDO2 (setting [3]), the ΔTm at 25 µM amounted to 10.3 °C. At apo-TDO2 (setting [4]), the ΔTm at 25 µM came out at 6.57 °C. Moreover, at apo-TDO2 (setting [5]), the “Tm Boltzmann” value is 59.1 and 60.21 and 60.17 and 60.23; the “Tm Derivative” value was 55.45 and 56.16 and 55.84 and 55.85. Moreover, inhibition against IDO1 was half-maximal at 5.7 µM (IC50). The “Soret band (405 nm) intensity of holo-TDO2 absorption spectrum” value at holo-TDO2 is “clear time-dependent reduction in the Soret band intensity; also recorded: reduction of the absorbance peak at 405 nm”.
